Reference: patent US20260144798A1, “Disruption of Vascular Smooth Muscle Relaxation by Carfilzomib May be the Primary Reason for CFZ-Induced Vascular Dysfunction” (AMGEN INC., priority 2019, published 2026)

Key:
eNOS = experiment: Western blot of phosphorylated eNOS and eNOS in mouse endothelial cells; assay type: cell-based; conditions: different concentrations of CFZ (FIG. 3A)
Experimental: Protein levels of eNOS were unable to be assessed in rat endothelial cells; therefore, endothelial cells from mice were used. Mouse coronary endothelial cells (Cell Biologics) at passage 7 were seeded at 50,000 cells per well with 200 μL of endothelial cell media (Cell Biologics) in 96-well plates for 24 hours at 37° C. in 5% CO2. Some cells were pretreated with 100 μM L-NAME for 1 hour before adding 10 μM ACh. Cells were further treated with 0.3, 0.9, or 2.7 μM of CFZ or its vehicle for an additional 48 hours. The supernatant was collected and the amount of NO was assessed following the manufacturer's protocol for the colorimetric Nitric Oxide Assay Kit (Abcam, Cambridge, MA).
Each cell pellet was lysed in 50 to 70 μL RIPA buffer (Cell Signaling Technology, Danvers, MA) with the Halt™ protease and phosphatase inhibitor cocktail (Thermo Fisher Scientific). Lysates were quantitated and loaded onto the Li-COR Western blot system. Antibodies specific to phosphorylated eNOS and eNOS from Thermo Fisher Scientific, anti-Guanylyl Cyclase β1 (ER-19) (Sigma-Aldrich), and β-Actin (Sigma-Aldrich) were diluted 1:1000 for Western blot. Antibodies specific to p-VASP, VASP, and GADPH-HRP were purchased from Cell Signaling Technology.

rat aortic rings = experiment: Sodium nitroprusside-induced relaxation of phenylephrine-precontracted rat aortic rings
Experimental: An isometric myograph (DMT 620M) was used for ex vivo measurement of vascular function. Eight-to 10-week old Sprague Dawley rats (purchased from Charles River Laboratories, Wilmington, MA) were first anesthetized with 3% isoflurane and then euthanized using inhaled desflurane. The aortas were isolated in an ice-cold, oxygenated (95% O2, 5% CO2) Krebs-Henseleit buffer (118.3 mM NaCl, 4.7 mM KCl, 1.2 mM MgSO4, 1.2 mM KH2PO4, 2.5 mM CaCl2, 25 mM NaHCO3, and 11.0 mM glucose; purchased from Sigma-Aldrich, St. Louis, MO). The thoracic aorta was carefully cleaned to remove perivascular fat and cut into 2-mm rings that were mounted between two stainless steel wires in the myograph chamber containing 8 mL of Krebs-Henseleit buffer in 95% O2 and 5% CO2 at 37° C. First, the rings were equilibrated in the chamber for 20 minutes, followed by a gradual increase of mechanical stretch until a final stretch of 10 mN (Newton) was reached. After an additional incubation with fresh buffer for 30 minutes, the rings were constricted with 8 mL of 80 mM KPSS (43 mM NaCl, 80 mM KCl, 2.5 mM CaCl2, 1.2 mM MgSO4, 1.2 mM KH2PO4, 25.0 mM NaHCO3, and 11.0 mM glucose) for 15 to 20 minutes, followed by 3 washes with the Krebs-Henseleit buffer until the force returned to the baseline stretch. The tension of the aortic rings was continuously measured with the Lab Chart 7 data acquisition system (ADInstruments, Colorado Springs, CO). In Some of the experiments the aortic rings were pre-treated with 100 μM N(gamma)-nitro-L-arginine methyl ester (L-NAME; Sigma-Aldrich) and 10 μM indomethacin for 10 minutes prior to the pre-incubation with CFZ (Amgen Inc.) for 2 hours. After an additional incubation with fresh buffer for 30 minutes, the rings were constricted with 8 mL of 80 mM KPSS (43 mM NaCl, 80 mM KCl, 2.5 mM CaCl2, 1.2 mM MgSO4, 1.2 mM KH2PO4, 25.0 mM NaHCO3, and 11.0 mM glucose) for 15 to 20 minutes, followed by 3 washes with the Krebs-Henseleit buffer until the force returned to the baseline stretch. The tension of the aortic rings was continuously measured with the Lab Chart 7 data acquisition system (ADInstruments, Colorado Springs, CO).
For assessment of the effect of CFZ on vascular relaxation, the pre-treated aortic rings were incubated with 1 μM PE for 20 minutes to induce contraction. For experiments involving sildenafil and tadalafil, a 10-minute pre-treatment with 30 nM of these smooth muscle relaxants was done prior to the incubation with CFZ. After reaching a stable contraction, ACh, sodium nitroprusside (SNP), nifedipine, riociguat, or cinaciguat was added to the chamber at an increasing concentration from 100 pM to 10 μM; each stepwise concentration increase was added after the response to the current concentration reached a plateau. The relaxation was continuously measured and plotted as percent relaxation normalized to the response with 1 μM PE.
Aortas were isolated from 8-10 week old CD® (Sprague Dawley) rats (from Charles River Laboratories) in an ice-cold, oxygenated (95% O2, 5% CO2) Krebs-Henseleit buffer. The aortas were then carefully cleaned to remove perivascular fat and cut into 2-mm rings that were mounted between two stainless steel wires in the myograph chamber containing 8 mL of Krebs-Henseleit buffer in 95% O2 and 5% CO2 at 37° C. Rings were stretch until a final stretch of 10 mN (Newton) was reached and incubated for 30 mins for equilibration.

## CC(C)C[C@H](NC(=O)[C@H](CCc1ccccc1)NC(=O)CN1CCOCC1)C(=O)N[C@@H](Cc1ccccc1)C(=O)N[C@@H](CC(C)C)C(=O)[C@@]1(C)CO1 [CFZ, carfilzomib]
eNOS
  level of phosphorylated eNOS: increasing level of phosphorylated eNOS corresponded to the increasing CFZ concentration
  protein expression level of total eNOS: remained the same
Rat aortic rings; FIG. 5A experiment, vehicle alone 7.2×10^−9
  EC50 for SNP-induced relaxation, CFZ alone: 1.7×10^−8
Rat aortic rings; in the presence of CFZ 2.7 μM, vehicle alone 1.8×10^−8
  EC50 for SNP-induced relaxation in the presence of L-NAME and indomethacin: 4.3×10^−8
Rat aortic rings; rings pretreated with CFZ, increasing SNP (FIG. 2B)
  effect on SNP-induced relaxation: appeared to interfere with SNP-induced relaxation
